Patent US7638540B2, “Benzofuran compound and medicinal composition containing the same” (The New Industry Research Organization, priority 2003, dated 2009)

SMILES | melting point [°C]
CCOC(=O)/C=C/C=C(\Cl)c1cc2cccc(OC)c2o1 [Example 62, Ethyl (2E,4Z)-5-chloro-5-(7-methoxybenzofuran-2-yl)penta-2,4-dienoate] | 113.9 to 117.6
COc1ccc(/C=C/C(=O)c2oc3ccc(Br)cc3c2NC(=O)CCCl)cc1 [Example 195, (E)-N-{5-bromo-2-[3-(4-methoxyphenyl)-acryloyl]benzofuran-3-yl}-3-chloropropionamide] | 170.7 to 172
COc1ccc(NC(=O)/C=C(/C)c2cc3cccc(OC(c4ccccc4)c4ccccc4)c3o2)cc1OC [Example 43, (Z)-3-(7-benzhydryloxybenzofuran-2-yl)-N-(3,4-dimethoxyphenyl)-2-butenamide] | 93.9 to 94.5
C/C(O)=C(/C#N)C(=O)NC(C)c1cc2cccc(OCC(=O)O)c2o1 (stereo not drawn) [Example 127, (E)-{2-[1-(2-cyano-3-hydroxy-2-butenoylamino)ethyl]benzofuran-7-yloxy}acetic acid] | 169.9 to 173.2
CCN(CC)C(=O)/C=C(/C)c1oc2ccc(Br)cc2c1C [Example 153, (Z)-3-(5-bromo-3-methylbenzofuran-2-yl)-2-butenoic acid diethylamide] | 60.1 to 62
COc1cccc2c(NC(=O)CC#N)c(C(=O)c3ccc(Br)cc3)oc12 [Example 198, N-[2-(4-bromobenzoyl)-7-methoxybenzofuran-3-yl]-2-cyanoacetamide] | 312.2 to 348.6
CC(=O)c1cc2cc(/C(C)=C/C(=O)N3CCOCC3)ccc2o1 [Example 27, (E)-3-(2-acetylbenzofuran-5-yl)-1-morpholino-2-buten-1-one] | 138.9 to 141.8
COc1ccc(CCNC(=O)/C=C(\C)c2ccc3oc(C(C)=O)c(NC(=O)/C(C#N)=C(/C)O)c3c2)cc1OC [Example 103, N-(2-acetyl-5-{(E)-2-[2-(3,4-dimethoxyphenyl)ethylcarbamoyl]-1-methylvinyl}benzofuran-3-yl)-2-cyano-3-hydroxy-(Z)-2-butenamide] | 176.7 to 179.7
COc1ccc(CCNC(=O)/C=C/C=C(\Cl)c2cc3cccc(OCCCCl)c3o2)cc1OC [Example 60, (2E,4Z)-5-chloro-5-[7-(3-chloropropoxy)benzofuran-2-yl]penta-2,4-dienoic acid [2-(3,4-dimethoxyphenyl)ethyl]amide] | 149 to 150
CCOC(=O)/C=C/C=C(\Cl)c1cc2cc(Br)ccc2o1 [Example 159, Ethyl (2E,4Z)-5-(5-bromobenzofuran-2-yl)-5-chloropenta-2,4-dienoate] | 109 to 113
CCN(CC)C(=O)/C=C(\C)c1cc(Cl)cc2cc(C(C)=O)oc12 [Example 170, (E)-3-(2-acetyl-5-chloro-benzofuran-7-yl)-2-butenoic acid diethylamide] | 116 to 117.5
COc1ccc2oc(-c3nc(N=CN(C)C)sc3/C=N/CCO)c(-c3ccc(Cl)cc3)c2c1 [Example 223, N′-{4-[3-(4-chlorophenyl)-5-methoxybenzofuran-2-yl]-5-[(2-hydroxyethylimino)methyl]thiazol-2-yl}-N,N-dimethylformamidine] | 167.8 to 169.2
CCN(CC)C(=O)/C=C(\C)c1ccc2oc(C(=O)Nc3cccc(OC)c3)c(NC(=O)/C(C#N)=C(/C)O)c2c1 [Example 189, 3-(2-cyano-3-hydroxy-(Z)-2-butenoylamino)-5-((E)-2-diethylcarbamoyl-1-methylvinyl)-benzofurane-2-carboxylic acid(3-methoxyphenyl)amide] | 172 to 174
CCN(CC)C(=O)/C=C(\C)c1ccc2oc(C(=O)c3ccc(C#N)cc3)c(N)c2c1 [Example 22, (E)-3-[3-amino-2-(4-cyanobenzoyl)benzofuran-5-yl]-N,N-diethyl-2-butenamide] | 216.4 to 218.4
CCNS(=O)(=O)c1ccc(OCCCC(=O)OCC)c2oc(C(C)NC(=O)/C(C#N)=C(\C)O)cc12 (stereo not drawn) [Example 128, Ethyl (E)-4-{2-[1-(2-cyano-3-hydroxy-2-butenoylamino)ethyl]-4-ethylsulfamoylbenzofuran-7-yloxy}butyrate] | 121 to 122.1
N#Cc1oc2ccc(Br)cc2c1NC(=O)/C=C/c1ccccc1 [Example 122, (E)-N-(5-bromo-2-cyanobenzofuran-3-yl)-3-phenylacrylamide] | 240.2 to 242
C/C=C/C(=O)Nc1c(C(=O)/C=C/N(C)C)oc2ccc(Br)cc12 [Example 177, (E)-2-butenoic acid [5-bromo-2-(3-dimethylamino-(E)-acryloyl)benzofuran-3-yl]amide] | 247.5 to 249.5
O=C(O)CCCOc1cccc2cc(C(Cl)=CC=CC(=O)N3CCOCC3)oc12 (stereo in doubt) [Example 147, (2E,4Z)-4-[2-(1-chloro-5-morpholin-4-yl-5-oxo-penta-1,3-dienyl)benzofuran-7-yloxy]butyric acid] | 152.5 to 154.8
CCOC(=O)/C=C(\C)c1ccc2oc(/C(Cl)=C/C=C/C(=O)N3CCOCC3)cc2c1 [Example 148, Ethyl 3-[2-(1-chloro-5-morpholin-4-yl-5-oxo-penta-(1Z,3E)-1,3-dienyl)benzofuran-5-yl]-(E)-2-butenoate] | 194.6 to 196.5
C/C=C/C(=O)Nc1c(Cl)oc2c(OC)cccc12 [Example 187, (E)-2-butenoic acid (2-chloro-7-methoxybenzofuran-3-yl)amide] | 216 to 217
CC(=O)c1cc2c(/C(C)=C/C(=O)N3CCN(Cc4ccccc4)CC3)ccc(OC(c3ccccc3)c3ccccc3)c2o1 [Example 12, (E)-3-(2-acetyl-7-benzhydryloxybenzofuran-4-yl)-1-(4-benzylpiperazin-1-yl)-2-buten-1-one] | 132.1 to 136.5

Next, values leading:

melting point [°C] | SMILES
169.1 to 170.2 | COc1cccc2c(NC(=O)CCCl)c(C(C)=O)oc12 [Example 204, N-(2-acetyl-7-methoxybenzofuran-3-yl)-3-chloropropionamide]
204 to 206 | CCN(CC)C(=O)/C=C(\C)c1ccc2oc(C(=O)Nc3cccc(OC)c3)c(NC(=O)c3cnoc3C)c2c1 [Example 186, (E)-5-methyl-isoxazole-4-carboxylic acid [5-((E)-2-diethylcarbamoyl-1-methylvinyl)-2-(3-methoxyphenylcarbamoyl)benzofuran-3-yl]amide]
229.4 to 232.5 | C/C(=C\C(=O)N1CCOCC1)c1ccc2oc(C(=O)c3ccc(C#N)cc3)c(NC(=O)c3cnoc3C)c2c1 [Example 81, (E)-N-[2-(4-cyanobenzoyl)-5-(1-methyl-3-morpholino-3-oxo-1-propenyl)benzofuran-3-yl]-5-methylisoxazole-4-carboxamide]
130.2 to 132.9 | CC(=O)OC(C)c1oc2ccccc2c1NC(=O)c1cnoc1C (stereo not drawn) [Example 76, 1-{3-[(5-methylisoxazole-4-carbonyl)amino]benzofuran-2-yl}ethyl acetate]
240.8 to 243.2 | Cc1oncc1C(=O)Nc1c(C(=O)c2ccc(Cl)cc2)oc2ccc(Br)cc12 [Example 77, N-[5-bromo-2-(4-chlorobenzoyl)benzofuran-3-yl]-5-methylisoxazole-4-carboxamide]
235.3 to 237.8 | COc1ccc(Br)c2c(NC(C)=O)c(C(C)=O)oc12 [Example 211, N-(2-acetyl-4-bromo-7-methoxybenzofuran-3-yl)acetamide]
90 to 91.8 | COc1cccc2cc(C(C)NC(C)=O)oc12 (stereo not drawn) [Example 191, N-[1-(7-methoxybenzofuran-2-yl)ethyl]acetamide]
206.1 to 208.1 | CC(=O)c1oc2ccccc2c1NC(=O)/C(C#N)=C(/C)O [Example 66, (Z)-N-(2-acetylbenzofuran-3-yl)-2-cyano-3-hydroxy-2-butenamide]
170 to 172.8 | CCOC(=O)c1oc2ccc(Br)cc2c1NC(=O)c1cnoc1C [Example 67, Ethyl 5-bromo-3-[(5-methylisoxazole-4-carbonyl)amino]benzofurane-2-carboxylate]
98 to 100 | C/C=C/C(=O)NC(C)c1cc2ccccc2o1 (stereo not drawn) [Example 192, (E)-2-butenoic acid (1-(benzofuran-2-yl)ethyl)amide]
201.8 to 205.9 | COc1ccc(NC(=O)c2cnoc2C)c2cc(C(C)=O)oc12 [Example 111, N-(2-acetyl-7-methoxybenzofuran-4-yl)-5-methylisoxazole-4-carboxamide]
207.2 to 208.9 | COc1cccc2c(NC(=O)/C(C#N)=C(/C)O)c(C(C)=O)oc12 [Example 102, (Z)-N-(2-acetyl-7-methoxybenzofuran-3-yl)-2-cyano-3-hydroxy-2-butenamide]
234.5 to 241.5 | COc1cccc(NC(=O)c2oc3ccc(Br)cc3c2NC(=O)/C(C#N)=C(/C)O)c1 [Example 188, (Z)-5-bromo-3-(2-cyano-3-hydroxy-2-butenoylamino)benzofurane-2-carboxylic acid (3-methoxyphenyl)amide]
227.3 to 230.4 | Cc1oncc1C(=O)Nc1c(C#N)oc2ccccc12 [Example 86, N-(2-cyanobenzofuran-3-yl)-5-methylisoxazole-4-carboxamide]
165.8 to 167.2 | C/C(O)=C(\C#N)C(=O)Nc1c(C#N)oc2ccccc12 [Example 105, (Z)-N-(2-cyanobenzofuran-3-yl)-2-cyano-3-hydroxy-2-butenamide]
138.9 to 141.2 | CCOC(=O)c1oc2ccc(/C(C)=C/C(=O)N(CC)CC)cc2c1NC(=O)c1cnoc1C [Example 91, Ethyl (E)-5-(2-diethylcarbamoyl-1-methylvinyl)-3-[(5-methylisoxazole-4-carbonyl)amino]benzofurane-2-carboxylate]
212 to 212.3 | COc1cc(C(=O)Nc2c(C(C)=O)oc3ccc(Br)cc23)cc(OC)c1OC [Example 210, N-(2-acetyl-5-bromobenzofuran-3-yl)-3,4,5-trimethoxybenzamide]
223 to 229 | COc1cccc(NC(=O)c2oc3ccc(Br)cc3c2NC(=O)c2cnoc2C)c1 [Example 183, 5-methyl-isoxazole-4-carboxylic acid [5-bromo-2-(3-methoxyphenylcarbamoyl)benzofuran-3-yl]amide]
